Experimental data reported in patent US11510926B2, “Pharmaceutical salts/co-crystals of pentoxifylline, clonidine and linsidomine with caffeic, protocatechuic or alpha-lipoic acid an use thereof for treatment of pain” (priority 2018, dated 2022).

Key:
CPIP rat model of CRPS [1] = test: Mechanical sensitivity (paw withdrawal threshold, von Frey) after topical application to the ipsilateral hind paw of CPIP rats; format: in vivo; conditions: for maximum change in PWTs after topical application: dose response comparison, Lin-CafA has half of the linsidomine content
From the text: Topical drugs were formulated into ointment-type preparation using a composite, water-soluble polyethylene glycol base system consisting of 40% carbowax (PEG 3350) and 60% PEG 400 (both from Sigma Aldrich). The required amounts of the active ingredients were first weighted out and then added to the already molten base and mixed well. The vehicle treatment consisted of the same water-miscible base ointment without the addition of the active drugs. The Chronic Post-ischemic Pain (CPIP) rat model of CRPS was prepared by inducing prolonged hind paw ischemia and subsequent reperfusion, as previously described by Coderre et. al., Pain, 112(1):94-105, 2004. In short, male Long Evans rats (300-400 g; Charles River, QC, Canada) were anesthetized over a 3-hour period with a bolus (55 mg/kg, intraperitoneally [i.p.]) followed by chronic i.p. infusion (0.15 mL/hour) of sodium pentobarbital (Ceva Sante Animale, Libourne, France) for 2 hours. Following induction of anesthesia, a Nitrile 70 Durometer O-ring (O-rings West, Seattle, Wash.) with an internal diameter of 5.5-mm was slipped around the rat's left hind limb proximal to the ankle joint to effect a complete blockade of arterial blood flow ([…] al., Mol Pain, 4:49, 2008). The ring was left in place for 3 hours, and the rats recovered from anesthesia 30 to 60 minutes following reperfusion. Mechanical Sensitivity Testing As a measure of mechanical sensitivity, paw withdrawal threshold (PWT), was tested on plantar surface of the ipsilateral hind paw of the CPIP rats. The rats were first habituated for 30 minutes in the testing chambers. Nylon monofilaments (von Frey hairs) with thickness designed to apply stimulus intensity ranging between 1 g and 15 g were applied to the plantar surface of the rats' hind-paw. The filaments were applied for 10 seconds or until flexion reflex occurred. PWTs were determined using Chaplan's up and down method after testing with the filaments in either ascending (after negative response) or descending (after positive response) order to find the correct response pattern which was later matched with its corresponding 50% threshold of paw withdrawal (Chaplan et al., J Neurosci Methods, 53:55-63, 1994). Time course measurements of PWTs after vehicle and drug administration were subjected to a repeated measure analysis of variance (ANOVA). Pairwise comparison was performed between PWTs obtained from drug and vehicle treatment groups measured at matching post-treatment times using Tukey's HSD test. Cumulative anti-allodynic effect measured over 180-minute time course experiments was assessed by calculating the area under the curve (AUC) of PWT elevations plotted post-topical application. Comparisons of different drug doses versus vehicle were performed using repeated measure ANOVA followed by Tukey's HSD test. Dose response curves for comparison of anti-allodynic potency were plotted on a semi-log scale with the amount of drug used per application on the X-axis and the AUC of the 180-minute PWT measured or change in PWT obtained post-drug application on the Y-axis. The linear regression of the dose-response curves was then calculated, and their difference analysed using a 1-way ANOVA. The synthesized salts/co-crystals of […], clonidine and […] were formulated into a polyethylene based topical ointment and their analgesic efficacy and potency tested and compared to their parent drugs on the CPIP rat model of CRPS.

CPIP rat model of CRPS [2] = test: Systemic absorption control: topical application to the uninjured contralateral paw, PWT of the injured CRPS paw; format: in vivo; conditions: concentration previously shown to relieve allodynia; PWT of injured paw at 30, 60, 120 and 180 minutes
Protocol: Mechanical Sensitivity Testing As a measure of mechanical sensitivity, paw withdrawal threshold (PWT), was tested on plantar surface of the ipsilateral hind paw of the CPIP rats. The rats were first habituated for 30 minutes in the testing chambers. Nylon monofilaments (von Frey hairs) with thickness designed to apply stimulus intensity ranging between 1 g and 15 g were applied to the plantar surface of the rats' hind-paw. The filaments were applied for 10 seconds or until flexion reflex occurred. PWTs were determined using Chaplan's up and down method after testing with the filaments in either ascending (after negative response) or descending (after positive response) order to find the correct response pattern which was later matched with its corresponding 50% threshold of paw withdrawal (Chaplan et al., J Neurosci Methods, 53:55-63, 1994).
To assess for any contribution systemic absorption might have to the anti-allodynic effects seen with the novel salts and co-crystals, we performed a control experiment using contralateral topical administration of the compounds. A topical preparation of the salts and co-crystals at a concentration proven to produce anti-allodynia, was applied to the uninjured contralateral paw of the CRPS rats and the effect this had on the PWT of the injured CRPS paw was measured at 30, 60, 120 and 180 minutes post topical application. The PWT obtained at 30, 60, 120 and 180 minutes post topical application were then compared with the values obtained after direct topical application on the injured CPRS paw.

CC(=O)CCCCn1c(=O)c2c(ncn2C)n(C)c1=O.O=C(O)C=Cc1ccc(O)c(O)c1 [Pntx-CafA, pentoxifylline caffeate]
anti-allodynic potency in linear segment of dose-response curve (CPIP rat model of CRPS [1]; Pntx-CafA 2% W/W and 1% W/W compared to Pntx alone): more potent anti-allodynic effect | elevation of PWTs compared to vehicle (CPIP rat model of CRPS [1]; topical 2% W/W, 60, 120 and 180 minutes post application, n=10): significant and sustained elevation of PWTs | anti-allodynic effect at higher dose (CPIP rat model of CRPS [1]; topical 4% W/W compared to 2% W/W): did not improve

O=C(O)/C=C/c1ccc(O)c(O)c1 [CafA, caffeic acid, reference compound]
anti-allodynic effects of topical administration on its own (CPIP rat model of CRPS [1]; CafA alone, FIG. 9C): no anti-allodynic effects | anti-allodynic effect upon topical application (CPIP rat model of CRPS [1]; CafA alone, three concentrations corresponding to W/W levels in the Pntx-CafA co-crystal, n=10): no anti-allodynic effect

Nc1c[n+](N2CCOCC2)no1.O=C([O-])/C=C/c1ccc(O)c(O)c1 [Lin-CafA, linsidomine caffeate]
elevation of PWTs compared to vehicle (CPIP rat model of CRPS [1]; 1.6% w/w, 30, 60 and 120 minutes post-application): significantly elevates PWTs to non-allodynic values | increase in potency (CPIP rat model of CRPS [1]; Lin-CafA compared to Lin-Cl): ~2.5 fold | leftward shift of x-intercept of the dose response curve (CPIP rat model of CRPS [1]; Lin-CafA compared to Lin-Cl, p=0.0026): 0.3966 log units | efficacy and potency compared with linsidomine chloride (CPIP rat model of CRPS [1]; comparison of dose response curves): greater efficacy and potency | maximum change in PWTs after topical application (CPIP rat model of CRPS [1]): 9.6±1.15 | anti-allodynic effect compared to vehicle (CPIP rat model of CRPS [1]; topical W/W 1.6% and 0.8%, for as long as 120 minutes post-application, n=9): significant anti-allodynic effect | anti-allodynic effects when applied to the contralateral (uninjured) paw (CPIP rat model of CRPS [2]): no anti-allodynic effects

pentoxifylline protocatechuate [Pntx-PCA]
cumulative 3-hour anti-allodynic effect (CPIP rat model of CRPS [1]; 2.5% W/W Pntx-PCA (1.5% Pntx and 1% PCA) compared to 3.5% Pntx and 2% PCA W/W): significantly exceeds the effect achieved by double the amount of its constituent drugs | increase in potency (CPIP rat model of CRPS [1]; Pntx-PCA compared to Pntx, from shift of log-dose response curve): ~4 fold | leftward shift of the log-dose response curve (CPIP rat model of CRPS [1]; Pntx-PCA compared to Pntx, p=0.0113): 0.59 log units | anti-allodynic effect (PWT) compared to ointment base alone (CPIP rat model of CRPS [1]; topical 5 and 10% W/W, ipsilateral hind paw, 30 to 60 minutes post-application, n=8): significant anti-allodynic effects | anti-allodynic effects when applied to the contralateral (uninjured) paw (CPIP rat model of CRPS [2]): no anti-allodynic effects

pentoxifylline-gallic acid [Pntx-GallA]
anti-allodynic effects of topical formulations (CPIP rat model of CRPS [1]; Pntx-GallA, CRPS rats, overall): modest anti-allodynic effects | difference in change in PWT versus respective doses of Pntx (CPIP rat model of CRPS [1]; different doses, 3 hours of testing following topical application): no significant measurable difference | improvement in PWT compared to vehicle (CPIP rat model of CRPS [1]; observed at the only dose of 4% W/W, p<0.05): significant improvement in PWT

[NH-]c1c[n+](N2CCOCC2)no1 [linsidomine chloride, reference compound]
maximum change in PWTs after topical application (CPIP rat model of CRPS [1]): 6.23±0.99

O=C(O)c1ccc(O)c(O)c1 [PCA, protocatechuic acid, reference compound]
anti-allodynic effect compared to vehicle (CPIP rat model of CRPS [1]; PCA alone, topical, at the w/w doses contained in the Pntx-PCA co-crystal): does not produce significant anti-allodynic effects

Clc1cccc(Cl)c1NC1=NCCN1.O=C(O)CCCCC1CCSS1 [Clon-ALA, clonidine α-lipoate]
rise in PWTs compared to vehicle (CPIP rat model of CRPS [1]; 0.025% w/w, 30 minutes post-application): significant rise in PWTs | duration of elevated PWTs (CPIP rat model of CRPS [1]; 0.05% w/w, compared to 0.025% (30 minutes)): stay significantly higher for twice as long | increase in potency (CPIP rat model of CRPS [1]; Clon-ALA compared to Clon-HCl): ~2 × | leftward shift of x-intercept of the dose response curve (CPIP rat model of CRPS [1]; Clon-ALA compared to Clon-HCl, p=0.04): 0.265 log units | relief of mechanical hypersensitivity (CPIP rat model of CRPS [1]; topical Clon-ALA, different doses, n=7): dose-dependently, relieves mechanical hypersensitivity | anti-allodynic effects when applied to the contralateral (uninjured) paw (CPIP rat model of CRPS [2]): no anti-allodynic effects
